Experimental data as given in the supplement of paper PMC10949913.

Columns and labels:
Settings in all cases: 48 h
[1] = system: NCI-H295R; assay: AC50 viability; higher = less potent
Summary of the method: (§1)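 For each of three adrenocortical carcinoma cell lines, 500–1,000 cells/well were placed in 5 µL medium in 1,536-well plates. A 23 nL volume of every library compound was added at 11 concentrations. Following 48 h, a 15-minute room-temperature CellTiter-Glo step preceded luminescence reading, with signals normalised per plate to vehicle and empty-well controls. AC50 and area under the curve were derived by curve fitting, retaining only inhibitory or non-responding curve classes.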

[2] = system: CU-ACC2; assay: AC50 viability; higher = less potent
Summary of the method: as §1

[3] = system: CU-ACC1; assay: area under concentration-response curve (viability) (AUC (a.u.)); higher = less active
Summary of the method: as §1

[4] = system: NCI-H295R; assay: as above
Summary of the method: as §1

[5] = system: CU-ACC2; assay: as above
Summary of the method: as §1

SMILES	AC50 viability [1]	AC50 viability [2]	area under concentration-response curve [3]	area under concentration-response curve [4]	area under concentration-response curve [5]
Cc1ccc(C(=O)OCc2ccc([C@@H](CN)C(=O)Nc3ccc4cnccc4c3)cc2)c(C)c1	12.9 µM	9.11 µM	507	534	591
CCN(CC)CCNc1ccc(C)c2sc3ccccc3c(=O)c12	20.9 µM	20.9 µM	447	456	489
CCc1nc(C(N)=O)c(Nc2ccc(N3CCC(N4CCN(C)CC4)CC3)c(OC)c2)nc1NC1CCOCC1	4.17 µM	13.2 µM	533	500	477
N#Cc1ccc2c(c1)CN([S+](=O)([O-])c1cccs1)[C@H](Cc1ccccc1)CN2Cc1cnc[nH]1	8.33 µM	0.833 µM	350	485	405
Cc1nc([C@](C)(O)CO)sc1-c1cnc(N)c(O[C@H](C)c2cc(F)ccc2-n2nccn2)c1	2.63 µM	1.86 µM	480	421	520
O=C(Nc1cc(Oc2cc(F)c(NC(=O)C3(C(=O)Nc4ccc(F)cc4)CC3)cc2F)ccn1)C1CC1	10.5 µM	8.33 µM	445	482	504
Cc1ccc(C(=O)Nc2ccc(CN3CCN(C)CC3)c(C(F)(F)F)c2)cc1C#Cc1cnc2[nH]ncc2c1	8.33 µM	8.33 µM	441	392	427
NC(=O)Nc1cc(-c2cccc(F)c2)sc1C(=O)N[C@H]1CCCNC1	2.35 µM	8.33 µM	397	410	432
COC(=O)[C@@]12OC[C@]34[C@H]([C@@H](O)[C@@H]1O)[C@@]1(C)CC(=O)C(O)=C(C)[C@@H]1C[C@H]3OC(=O)[C@H](OC(=O)/C=C(\C)C(C)C)[C@@H]24	0.263 µM	0.0417 µM	251	316	280
Cc1cc(O)c(-c2ccc([C@@H](C)CN)cc2)c2c1[nH]c(=O)c1sccc12	0.00105 µM	0.148 µM	203	128	223
Cc1c(O)cccc1C(=O)NC(CSc1ccccc1)C(O)CN1CC2CCCCC2CC1C(=O)NC(C)(C)C (stereo not given)	23.5 µM	20.9 µM	406	561	550
CC(C)C(N)C(=O)OCC(CO)OC[N]1C=NC2=C1N\C(=N/C2=O)N (stereo not given)	0.661 µM	5.25 µM	426	436	436
CN[C@H]1CCC2=CC(=C(OC)C(=C2C/3=C/C=C(OC)\C(=O)/C=C13)OC)OC	0.0934 µM	0.468 µM	478	417	463
CC[C@@H]([C@H](C)O)N1\N=C/N(C1=O)C2=CC=C(C=C2)N3CCN(CC3)C4=CC=C(OCC5CO[C@@](C5)(C[N]6C=NC=N6)C7=C(F)C=C(F)C=C7)C=C4 (stereo not given in full)	8.33 µM	7.42 µM	403	423	447
N#CC(c1ccnc(NCCc2cccnc2)n1)c1nc2ccccc2s1 (stereo not given)	20.9 µM	16.6 µM	509	410	493
CC(=O)O[C@@]12CO[C@@H]1C[C@H](O)[C@@]1(C)C(=O)[C@H](O)C3=C(C)[C@@H](OC(=O)[C@H](O)[C@@H](NC(=O)OC(C)(C)C)c4ccccc4)C[C@@](O)([C@@H](OC(=O)c4ccccc4)[C@H]21)C3(C)C	0.417 µM	20.9 µM	302	270	334
O=c1[nH]c2ccccc2n1C1CCN(Cc2ccc(-c3nc4cc5nc[nH]c5cc4nc3-c3ccccc3)cc2)CC1	20.9 µM	20.9 µM	558	492	604
CC[C@]12\C=C/CN3CC[C@]4([C@@H](N(C)C5=C4C=C(C(=C5)OC)[C@]6(CC7C[C@H](CN(C7)CC8=C6[NH]C9=C8C=CC=C9)C(C)(F)F)C(=O)OC)[C@](O)([C@@H]1OC(C)=O)C(=O)OC)[C@H]23 (stereo not given in full)	1.48 µM	5.9 µM	468	394	533
COc1cc2ncn(-c3cc(OCc4ccccc4[S+](C)(=O)[O-])c(C#N)s3)c2cc1OC	37.2 µM	33.2 µM	351	376	399
CN(C)Cc1ccc([S+](=O)([O-])n2ccc(/C=C/C(=O)NO)c2)cc1	16.6 µM	9.34 µM	461	465	496

SMILES	AC50 viability [1]	AC50 viability [2]	area under concentration-response curve [3]	area under concentration-response curve [4]	area under concentration-response curve [5]
COc1ccc(-c2ccc3ncc4c(c3c2)n(-c2ccc(N3CCNCC3)c(C(F)(F)F)c2)c(=O)n4C)cn1	1.05 µM	1.86 µM	376	330	385
CN1CCC(C1CO)C2=C(O)C=C(O)C3=C2O\C(=C/C3=O)C4=CC=CC=C4Cl (stereo not given)	3.32 µM	0.833 µM	431	422	417
COC1=C(OCCCN2CCOCC2)C=C3N=CC=C(OC4=CC=C(C=C4F)\C5=C\N=C(\NC6=CC=C(F)C=C6)N(C)C5=O)C3=C1	8.33 µM	18.6 µM	474	400	528
C[C@H]1[C@H](OC(=O)CCC(=O)O)O[C@@H]2O[C@@]3(C)CC[C@H]4[C@H](C)CC[C@@H]1[C@@]24OO3	20.9 µM	20.9 µM	354	522	585
Cc1cc(Nc2cc(N3CCN(C)CC3)nc(Sc3ccc(NC(=O)C4CC4)cc3)n2)[nH]n1	18.6 µM	20.9 µM	534	459	569
C[C@@H](OC[C@@]1(c2ccccc2)CC[C@]2(CCC(=O)N2)CN1)c1cc(C(F)(F)F)cc(C(F)(F)F)c1	16.6 µM	20.9 µM	550	497	566
CC[S+](=O)([O-])N1CC(CC#N)(n2cc(-c3ncnc4[nH]ccc34)cn2)C1	18.6 µM	20.9 µM	472	513	530
COCCNCc1ccc(-c2cc3nccc(Oc4ccc(NC(=S)NC(=O)Cc5ccc(F)cc5)cc4F)c3s2)nc1	4.68 µM	7.42 µM	436	388	444
Cc1ccc(-n2nc(C(C)(C)C)cc2N/C(O)=N/Cc2cc(F)ccc2Oc2ccc3c(cnn3CCO)c2)cc1	33.2 µM	20.9 µM	518	522	549
Cc1cnc(Nc2ccc(F)cc2Cl)nc1-c1c[nH]c(C(=O)N[C@H](CO)c2cccc(Cl)c2)c1	26.3 µM	18.6 µM	500	532	572
CC[S+](=O)([O-])Nc1ccc2c(c1)/C(=C(/Nc1ccc(CN3CCCCC3)cc1)c1ccccc1)C(=O)N2	5.25 µM	3.32 µM	447	408	425
N=C(NCCCCCCNC(=N)NC(=N)Nc1ccc(Cl)cc1)NC(=N)Nc1ccc(Cl)cc1	14.8 µM	23.5 µM	511	443	573
COc1cccc2c1C(=O)c1c(O)c3c(c(O)c1C2=O)C[C@@](O)(C(=O)CO)C[C@@H]3O[C@H]1C[C@H](N)[C@H](O)[C@H](C)O1	16.6 µM	5.9 µM	461	452	485
O=C(c1ccc(/C=C/c2n[nH]c3ccccc23)cc1)N1CCNCC1	0.263 µM	20.9 µM	423	397	391
CN1C/C=C/CCOc2cccc(c2)-c2ccnc(n2)Nc2cccc(c2)C1	0.235 µM	0.0525 µM	208	164	165
CC(=O)O[C@H]1C(=O)[C@]2(C)[C@@H](O)C[C@H]3OC[C@@]3(OC(C)=O)C2[C@H](OC(=O)C4=CC=CC=C4)[C@]5(O)C[C@H](OC(=O)[C@H](O)[C@@H](NC(=O)C6=CC=CC=C6)C7=CC=CC=C7)\C(=C1/C5(C)C)C (stereo not given in full)	0.209 µM	8.33 µM	424	379	473
C=CC(=O)Nc1cccc(Oc2nc(Nc3ccc(N4CCN(C)CC4)c(F)c3)nc3[nH]ccc23)c1	20.9 µM	18.6 µM	504	492	557
Cn1ncc(Cl)c1-c1cc(C(=O)N[C@H](CN)Cc2ccc(F)c(F)c2)sc1Cl	14.8 µM	14.8 µM	488	473	550
N#Cc1cc2cc(CN3CCC(Nc4ncnc5sc(CC(F)(F)F)cc45)CC3)c(O)cc2n1Cc1cn[nH]c1	18.6 µM	18.6 µM	527	501	565
CC1(COc2ccc3c(c2)ncn3-c2ccc3cccc(N4CCC(N)CC4)c3n2)COC1	16.6 µM	13.2 µM	545	439	556
